Our source for the TGI and GI50 values is PubChem BioAssay (NCI).

Some test systems named below: SNB-19 CNS; IGROV1 ovarian; SN12C renal; MOLT-4 leukemia; A549 NSCLC; MALME-3M melanoma; COLO 205 colon; MDA-MB-231 breast; OVCAR-5 ovarian; UACC-257 melanoma.
Assay in all cases: NCI tumour cell line growth inhibition, 48 h

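Cultured in 96-well plates, cells were exposed to test compound for 48 hours across five concentrations. Here, GI50 denotes the concentration required for 50% inhibition of growth. TGI: concentration producing complete growth inhibition.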

Regarding `CCOC(=O)/C(C(=O)c1ccc[nH]1)=C1/CCCN1C`, the TGI with SNB-19 CNS, with IGROV1 ovarian, with SN12C renal, in the assay with MOLT-4 leukemia, in the assay with A549 NSCLC and with MALME-3M melanoma was over 100 µM in each case. For the same molecule, the TGI in the assay on COLO 205 colon, in the assay on MDA-MB-231 breast, in the assay on OVCAR-5 ovarian and in the assay with UACC-257 melanoma was over 100 µM throughout.

Turning to `CCN(CC)C(=O)N[C@@H](CC(C)C)C(=O)NC`, the TGI in the assay with SNB-19 CNS, in the assay with IGROV1 ovarian, in the assay on SN12C renal, in the assay with MOLT-4 leukemia, in the assay on A549 NSCLC and in the assay with MALME-3M melanoma was over 100 µM in each case. Also, the TGI in the assay on COLO 205 colon, in the assay with MDA-MB-231 breast and with OVCAR-5 ovarian was over 100 µM in each case.

On to `Cc1ccc2c(c1)CC1(Cc3cc(C)ccc3C1=O)C2=O`, for which the TGI in the assay on SNB-19 CNS, with IGROV1 ovarian, with MOLT-4 leukemia, in the assay on A549 NSCLC, with MALME-3M melanoma and with MDA-MB-231 breast was over 100 µM each time. The TGI with OVCAR-5 ovarian and with UACC-257 melanoma was over 100 µM throughout.

Turning to `NC1=Nc2ncccc2C(=O)NN1`, the TGI in the assay on SNB-19 CNS, in the assay on IGROV1 ovarian, in the assay on SN12C renal, in the assay on MOLT-4 leukemia, in the assay on A549 NSCLC and in the assay on MALME-3M melanoma was over 10 µM throughout. Moreover, the TGI in the assay on MDA-MB-231 breast, in the assay with OVCAR-5 ovarian and in the assay on UACC-257 melanoma was over 10 µM in each case.

As to `CCOC(=O)c1c(NS(=O)(=O)c2ccccc2)sc2c1CCCC2`, the TGI with SNB-19 CNS, in the assay with IGROV1 ovarian, in the assay with SN12C renal, in the assay on MOLT-4 leukemia, in the assay on A549 NSCLC and in the assay on COLO 205 colon was over 100 µM in each case. Further, the TGI with MDA-MB-231 breast, in the assay with OVCAR-5 ovarian and with UACC-257 melanoma was over 100 µM in each case.

Turning to `CC(=O)N(C(=O)CC(=O)N1N=C(C)C(N=Nc2cccc([N+](=O)[O-])c2)C1=O)c1ccc(Cl)cc1` (stereo not given), the TGI in the assay with SNB-19 CNS, in the assay with IGROV1 ovarian, in the assay on SN12C renal, in the assay on A549 NSCLC, in the assay on MALME-3M melanoma and in the assay on COLO 205 colon was over 10 µM in each case. For the same molecule, the TGI with MDA-MB-231 breast, with OVCAR-5 ovarian and in the assay on UACC-257 melanoma was over 10 µM in each case.

Regarding `O=C(c1ccccc1)c1nn(-c2cccc(Cl)c2)c2nc3nc(-c4ccccc4)cc(=O)n3nc12`, the GI50 with SNB-19 CNS, with IGROV1 ovarian, in the assay on SN12C renal, with MOLT-4 leukemia, in the assay with A549 NSCLC and in the assay on MALME-3M melanoma was over 25 µM throughout. Further, the GI50 in the assay with COLO 205 colon, with MDA-MB-231 breast and in the assay on UACC-257 melanoma was over 25 µM throughout. For the same molecule, the TGI in the assay with SNB-19 CNS, with IGROV1 ovarian, in the assay with SN12C renal, with MOLT-4 leukemia, with A549 NSCLC and in the assay with MALME-3M melanoma was over 25 µM throughout. Also, the TGI in the assay with COLO 205 colon, in the assay on MDA-MB-231 breast and in the assay with UACC-257 melanoma was over 25 µM throughout.

With `CSC(SC)=C(C#N)C(=O)Nc1ccc(Cl)cc1`, the TGI is over 100 µM in the assay on SNB-19 CNS; over 100 µM in the assay with SN12C renal; 89.6 µM in the assay with MOLT-4 leukemia; over 100 µM in the assay on A549 NSCLC; over 100 µM with MALME-3M melanoma; 35.9 µM in the assay on COLO 205 colon. The TGI with MDA-MB-231 breast, in the assay with OVCAR-5 ovarian and in the assay on UACC-257 melanoma was over 100 µM in each case.

Turning to `O=C(Cn1c(=O)oc2ccccc21)N(c1ccccc1)c1ccccc1`, the TGI in the assay with SNB-19 CNS, with IGROV1 ovarian, with SN12C renal, in the assay with MOLT-4 leukemia, with MALME-3M melanoma and in the assay with COLO 205 colon was over 100 µM throughout. Further, the TGI in the assay with MDA-MB-231 breast, in the assay on OVCAR-5 ovarian and with UACC-257 melanoma was over 100 µM in each case.

Turning to `O=C(OC[C@H]1C[C@H]2C(=O)OCCC[C@H]2O1)c1ccccc1`, the TGI in the assay on SNB-19 CNS, in the assay on IGROV1 ovarian, in the assay on SN12C renal, in the assay with MOLT-4 leukemia, in the assay on A549 NSCLC and in the assay with COLO 205 colon was over 100 µM each time. Also, the TGI in the assay with MDA-MB-231 breast, in the assay with OVCAR-5 ovarian and with UACC-257 melanoma was over 100 µM throughout.

For the molecule `N#CCCN(C(=O)Nc1ccc(NC(=O)N(CCC#N)c2ccccc2)cc1)c1ccccc1`, the TGI in the assay on SNB-19 CNS, in the assay with IGROV1 ovarian, in the assay on SN12C renal, with MOLT-4 leukemia, with A549 NSCLC and in the assay with MALME-3M melanoma was over 100 µM throughout. Moreover, the TGI in the assay on COLO 205 colon, in the assay with MDA-MB-231 breast and with OVCAR-5 ovarian was over 100 µM each time.

As for `c1cc(CSP234N5CCN2CCN3CCN4CC5)cc(CSP234N5CCN2CCN3CCN4CC5)c1`, the TGI is over 100 µM in the assay on SNB-19 CNS; 76.6 µM in the assay with IGROV1 ovarian; over 100 µM with SN12C renal; 49.5 µM in the assay with MOLT-4 leukemia; over 100 µM in the assay on A549 NSCLC; 49.9 µM with COLO 205 colon. Also, the TGI with MDA-MB-231 breast is 38.2 µM; in the assay on OVCAR-5 ovarian, over 100 µM; in the assay on UACC-257 melanoma, 34.9 µM.

As for `CN1N=C(c2ccncc2)OC1c1ccc(C(F)(F)F)cc1` (stereo not given), the TGI in the assay on SNB-19 CNS, with IGROV1 ovarian, in the assay on SN12C renal, with MOLT-4 leukemia, in the assay with A549 NSCLC and with COLO 205 colon was over 100 µM each time. Moreover, the TGI in the assay on MDA-MB-231 breast, with OVCAR-5 ovarian and with UACC-257 melanoma was over 100 µM throughout.

As to `CC1(C)OCC(/C=C\C(O)CC2(C)OCCO2)CO1` (stereo not given), the TGI in the assay on SNB-19 CNS, with IGROV1 ovarian, with SN12C renal, in the assay with MOLT-4 leukemia, in the assay with A549 NSCLC and with COLO 205 colon was over 100 µM each time. Also, the TGI in the assay on MDA-MB-231 breast, with OVCAR-5 ovarian and with UACC-257 melanoma was over 100 µM in each case.
